Test [1] addresses T1, EGFR (d746-750) (Homo sapiens, UniProt P00533, DEL746-750).
T1 construct: purchased Carna Biosciences, Inc
As to the kind of experiment: EGFR (d746-750) kinase inhibitory activity. The class given is biochemical. The note with it: ATP 5 μM, kinase reaction 90 minutes. The method, then: (§1) Among the materials of the inhibitory activity measurement, the substrate peptide and the kinase protein were obtained as follows. A peptide with biotinylated N-terminus (biotin-EEPLYWSFPAKKK) was synthesized with reference to FL-Peptide 22, a reagent for LabChip® series of PerkinElmer, Inc. For the kinase protein, a purified recombinant human EGFR (T790M/L858R) protein of Carna Biosciences, Inc. was purchased.
(§2) The inhibitory activity measurement was performed as follows. The compounds of the present invention were individually dissolved in dimethyl sulfoxide (DMSO), and serial dilutions of these compounds were prepared using DMSO. Subsequently, a solution containing the substrate peptide (final concentration: 250 nM), magnesium chloride (final concentration: 10 mM), manganese chloride (final concentration: 10 mM), and ATP (final concentration: 1 μM) in a buffer solution for kinase reaction (Carna Biosciences, Inc.) was mixed with the dilutions of the compounds (final concentration of DMSO upon kinase reaction: 2.5%) or DMSO (final concentration: 2.5%). EGFR (T790M/L858R) protein was further added thereto, and the mixtures were incubated at 25° C. for 120 minutes to carry out a kinase reaction. EDTA was added thereto to a final concentration of 24 mM to thereby terminate the reaction. A phosphorylated thyrosine detection solution containing europium (Eu)-labeled anti-phosphorylated tyrosine antibody PT66 (PerkinElmer, Inc.) and SureLight APC-SA (PerkinElmer, Inc.) was added to the reaction mixtures, and the mixtures were allowed to stand at room temperature for 2 hours or more. For the background, a sample to which EDTA was added before addition of EGFR (T790M/L858R) protein was incubated at 25° C. for 120 minutes, using DMSO instead of the DMSO solution of the compound. The detection solution was also added to this sample, and the mixture was allowed to stand for 2 hours or more. Finally, for all of the test samples, the amount of fluorescence at the time of irradiation of excitation light having a wavelength of 337 nm was measured at dual wavelengths of 620 nm and 665 nm by PHERAstar FS (BMG LABTECH), and a ratio of the fluorescence amounts at the two wavelengths was obtained as data.
(§3) Based on the above rates, phosphorylation inhibition rates (%) were calculated for the samples to which various concentrations of the compound solutions were added. Finally, the obtained reaction inhibition rates (%) at the respective concentrations were plotted for each compound, and the IC50 value (nM), which is a compound concentration at which phosphorylation by EGFR (T790M/L858R) is inhibited by 50%, was determined using XLfit curve-fitting software (IDBS).
The inhibitory activities of the compounds of the present invention against EGFR (d746-750) kinase activity were measured.
The materials, the measurement method, and the data analysis method were substantially the same as those shown in the above description regarding “Measurement of EGFR (T790M/L858R) Kinase Inhibitory Activity,” except that a purified recombinant human EGFR (d746-750) protein purchased from Carna Biosciences, Inc. was used as the kinase protein, the measurement was performed with ATP at a final concentration of 5 μM, and the incubation for the kinase reaction was performed for 90 minutes. Finally, the IC50 value (nM) of each compound with respect to EGFR (d746-750) was determined by data analysis.

The subject of test [2] is NCI-H1975 expressing EGFR (T790M/L858R). As to the kind of experiment: Growth inhibition, NCI-H1975 expressing EGFR (T790M/L858R). It counts as cell-based. The following applies: Homo sapiens, NCI-H1975, 72 h; cultured three days, CellTiter-Glo. On the procedure: (§4) (1) A human […] lung cancer cell line NCI-H1975 expressing EGFR (T790M/L858R), (2) a human non-small cell lung cancer cell line HCC827 expressing EGFR (d746-750), and (3) a human epithelioid cancer cell line A431 expressing EGFR (WT) were each suspended in complete growth medium recommended by ATCC. The cell suspensions were seeded in each well of a 384-well flat microplate or a 96-well flat plate, and cultured in an incubator containing 5% carbon dioxide gas at 37° C. for one day. Each compound of the present invention was dissolved in DMSO, and serial dilutions of the test compound were prepared using DMSO (to a concentration 500 times the final concentration). The DMSO solution of the test compound or DMSO was diluted with complete growth medium, and the resulting solution was added to each well of the cell culture plate so that the final concentration of DMSO was 0.2%. Then, the cells were cultured in an incubator containing 5% carbon dioxide gas at 37° C. for three days. The number of cells was measured before the addition of the DMSO solution of the test compound, as well as after addition and culture by using a CellTiter-Glo Assay® (produced by Promega) according to a protocol recommended by Promega.
(§5) For each cell, the cell growth inhibition rates of the wells to which the test compounds at various concentrations were added were calculated by the following formula. Then, the obtained inhibition rates (%) at the respective concentrations were plotted for each test compound, and the GI50 value (nM), which is a test compound concentration at which the cell growth can be inhibited by 50%, was determined using XLfit curve-fitting software (IDBS). • Cell Growth Inhibition Rate (%)=(C−T)/(C−CO)×100 • T: Luminescence intensity of well cultured for three days after addition of the test compound solution • C: Luminescence intensity of well cultured for three days after addition of DMSO • C0: Luminescence intensity of well before addition of the test compound solution
On the technique in general: Cellular ATP, detected with luciferase, serves as a proxy for viable cell number.

For test [3], the system named is A431 expressing EGFR (WT). Put plainly: Growth inhibition, A431 expressing EGFR (WT). The class given is cell-based. The following applies: Homo sapiens, A-431, 72 h; cultured three days, CellTiter-Glo. The method, then:
as §4, §5

The test system of test [4] is HCC827 expressing EGFR (d746-750). Put plainly: Growth inhibition, HCC827 expressing EGFR (d746-750). The following applies: Homo sapiens, HCC827, 72 h; cultured three days, CellTiter-Glo. It counts as cell-based. On the procedure:
as §4, §5

Test [5] deals with T2, EGFR (d746-750/T790M) (Homo sapiens, UniProt P00533, DEL746-750/T790M).
T2 construct: purchased Carna Biosciences, Inc
As to the kind of experiment: EGFR (d746-750/T790M) kinase inhibitory activity. It counts as biochemical. The note with it: ATP 1.5 μM. On the procedure: as §1, §2, §3
The inhibitory activities of the compounds of the present invention against EGFR (d746-750/T790M) kinase activity were measured.
The materials, the measurement method, and the data analysis method were substantially the same as those shown in the above description regarding “Measurement of EGFR (T790M/L858R) Kinase Inhibitory Activity,” except that a purified recombinant human EGFR (d746-750/T790M) protein purchased from Carna Biosciences, Inc. was used as the kinase protein, and the measurement was performed with an ATP final concentration of 1.5 μM. Finally, the IC50 value (nM) of each compound with respect to EGFR (d746-750/T790M) was determined by data analysis.

For test [6], the target named is T3, EGFR (WT) (Homo sapiens, UniProt P00533).
T3 construct: expressing a cytoplasmic domain of human EGFR (WT) with its N-terminus fused to a FLAG tag; FLAG (N); made in house; host or cells: insect Sf9 cells, baculovirus expression system
Put plainly: EGFR (WT) kinase inhibitory activity. It counts as biochemical. The note with it: substrate peptide 500 nM. The method, then: as §1, §2, §3
The inhibitory activities of the compounds of the present invention against EGFR (WT) kinase activity were measured.
The materials, the measurement method, and the data analysis method were substantially the same as those shown in the above description regarding “Measurement of EGFR (T790M/L858R) Kinase Inhibitory Activity,” except that a kinase protein prepared by expressing a cytoplasmic domain of human EGFR (WT) with its N-terminus fused to a FLAG tag in insect Sf9 cells using a baculovirus expression system and then purifying it with anti-FLAG antibody agarose (Sigma-Aldrich) was used as the kinase protein, the final concentration of the substrate peptide was 500 nM, and the final concentration of ATP was […]. Finally, the IC50 value (nM) of each compound with respect to EGFR (WT) was determined by data analysis.

The target of test [7] is T4, EGFR (L858R) (Homo sapiens, UniProt P00533, L858R).
T4 construct: purchased Carna Biosciences, Inc
Put plainly: EGFR (L858R) kinase inhibitory activity. The class given is biochemical. The following applies: ATP 4 μM. On the procedure: as §1, §2, §3
The inhibitory activities of the compounds of the present invention against EGFR (L858R) kinase activity were measured.
The materials, the measurement method, and the data analysis method were substantially the same as those shown in the above description regarding “Measurement of EGFR (T790M/L858R) Kinase Inhibitory Activity,” except that a purified recombinant human EGFR (L858R) protein purchased from Carna Biosciences, Inc. was used as the kinase protein, and the measurement was performed with ATP at a final concentration of 4 μM. Finally, the IC50 value (nM) of each compound with respect to EGFR (L858R) was determined by data analysis.

Test [8] deals with T5, EGFR (T790M/L858R) (Homo sapiens, UniProt P00533, L858R/T790M).
T5 construct: purchased Carna Biosciences, Inc
As to the kind of experiment: EGFR (T790M/L858R) kinase inhibitory activity. The note with it: ATP 1 μM, 25° C. for 120 minutes. It counts as biochemical. The method, then:
The inhibitory activities of the compounds of the present invention against EGFR (T790M/L858R) kinase activity were measured.
as §1, §2, §3

T4 sequence (P00533 25-1210 L858R): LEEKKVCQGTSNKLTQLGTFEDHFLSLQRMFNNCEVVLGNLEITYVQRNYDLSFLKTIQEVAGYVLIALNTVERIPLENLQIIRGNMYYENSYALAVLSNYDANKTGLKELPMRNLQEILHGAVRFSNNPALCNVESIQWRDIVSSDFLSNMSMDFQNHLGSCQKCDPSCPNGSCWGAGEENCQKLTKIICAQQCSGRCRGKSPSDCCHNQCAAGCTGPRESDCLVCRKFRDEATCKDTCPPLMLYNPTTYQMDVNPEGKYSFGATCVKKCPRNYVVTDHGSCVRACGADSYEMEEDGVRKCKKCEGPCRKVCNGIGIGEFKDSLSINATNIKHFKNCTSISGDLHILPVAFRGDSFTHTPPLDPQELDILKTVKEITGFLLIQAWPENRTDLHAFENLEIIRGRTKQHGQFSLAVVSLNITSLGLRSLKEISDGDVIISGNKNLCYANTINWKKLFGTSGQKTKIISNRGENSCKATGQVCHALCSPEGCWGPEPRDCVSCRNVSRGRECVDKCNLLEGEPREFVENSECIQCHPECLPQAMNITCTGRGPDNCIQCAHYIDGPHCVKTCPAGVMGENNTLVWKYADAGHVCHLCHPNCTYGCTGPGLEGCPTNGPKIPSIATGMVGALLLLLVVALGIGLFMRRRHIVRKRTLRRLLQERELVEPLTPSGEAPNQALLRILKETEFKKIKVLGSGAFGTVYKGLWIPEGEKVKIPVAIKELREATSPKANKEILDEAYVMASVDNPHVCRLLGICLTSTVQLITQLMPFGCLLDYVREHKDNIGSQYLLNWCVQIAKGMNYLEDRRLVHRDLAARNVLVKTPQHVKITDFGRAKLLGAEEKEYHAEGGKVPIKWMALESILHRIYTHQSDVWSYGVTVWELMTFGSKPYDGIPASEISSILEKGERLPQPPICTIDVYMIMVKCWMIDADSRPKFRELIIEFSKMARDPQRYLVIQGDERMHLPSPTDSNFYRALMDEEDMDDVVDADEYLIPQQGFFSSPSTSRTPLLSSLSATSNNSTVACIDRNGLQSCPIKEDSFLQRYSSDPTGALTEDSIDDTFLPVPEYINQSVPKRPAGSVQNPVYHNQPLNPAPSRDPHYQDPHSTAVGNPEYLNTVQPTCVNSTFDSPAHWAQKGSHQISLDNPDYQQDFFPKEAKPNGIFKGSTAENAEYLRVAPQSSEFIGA
T2 sequence (P00533 with tags, fused parts or gaps DEL746-750/T790M limits assumed): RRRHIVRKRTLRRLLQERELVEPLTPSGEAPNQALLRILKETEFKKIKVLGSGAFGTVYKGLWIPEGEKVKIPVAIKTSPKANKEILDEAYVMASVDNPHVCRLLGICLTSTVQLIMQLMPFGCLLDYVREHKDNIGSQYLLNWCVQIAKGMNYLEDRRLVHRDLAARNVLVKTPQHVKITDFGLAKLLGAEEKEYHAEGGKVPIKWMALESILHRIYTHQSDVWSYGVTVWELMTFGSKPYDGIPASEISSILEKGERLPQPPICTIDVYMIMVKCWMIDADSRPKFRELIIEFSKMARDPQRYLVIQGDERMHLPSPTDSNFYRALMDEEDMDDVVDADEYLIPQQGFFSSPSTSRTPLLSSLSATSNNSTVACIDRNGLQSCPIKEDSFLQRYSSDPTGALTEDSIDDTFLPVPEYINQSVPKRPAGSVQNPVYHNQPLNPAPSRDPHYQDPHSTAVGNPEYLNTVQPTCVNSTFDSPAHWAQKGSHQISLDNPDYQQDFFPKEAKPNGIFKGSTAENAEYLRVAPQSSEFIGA
T3 sequence (P00533 669-1210 limits assumed): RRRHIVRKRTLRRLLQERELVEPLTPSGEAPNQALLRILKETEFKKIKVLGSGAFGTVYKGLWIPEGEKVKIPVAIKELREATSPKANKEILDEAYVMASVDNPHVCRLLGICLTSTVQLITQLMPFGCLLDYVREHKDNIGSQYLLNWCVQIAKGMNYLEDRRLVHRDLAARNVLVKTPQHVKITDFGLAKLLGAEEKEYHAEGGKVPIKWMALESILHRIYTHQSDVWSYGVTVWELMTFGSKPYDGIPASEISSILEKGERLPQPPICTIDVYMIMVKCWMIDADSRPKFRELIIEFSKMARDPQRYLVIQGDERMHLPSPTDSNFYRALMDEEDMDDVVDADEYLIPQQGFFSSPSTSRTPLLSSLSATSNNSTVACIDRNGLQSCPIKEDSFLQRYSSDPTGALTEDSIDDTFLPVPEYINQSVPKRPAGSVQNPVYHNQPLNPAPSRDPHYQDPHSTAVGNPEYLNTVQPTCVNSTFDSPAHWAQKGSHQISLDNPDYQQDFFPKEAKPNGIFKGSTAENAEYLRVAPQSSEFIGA
T5 sequence (P00533 25-1210 T790M/L858R): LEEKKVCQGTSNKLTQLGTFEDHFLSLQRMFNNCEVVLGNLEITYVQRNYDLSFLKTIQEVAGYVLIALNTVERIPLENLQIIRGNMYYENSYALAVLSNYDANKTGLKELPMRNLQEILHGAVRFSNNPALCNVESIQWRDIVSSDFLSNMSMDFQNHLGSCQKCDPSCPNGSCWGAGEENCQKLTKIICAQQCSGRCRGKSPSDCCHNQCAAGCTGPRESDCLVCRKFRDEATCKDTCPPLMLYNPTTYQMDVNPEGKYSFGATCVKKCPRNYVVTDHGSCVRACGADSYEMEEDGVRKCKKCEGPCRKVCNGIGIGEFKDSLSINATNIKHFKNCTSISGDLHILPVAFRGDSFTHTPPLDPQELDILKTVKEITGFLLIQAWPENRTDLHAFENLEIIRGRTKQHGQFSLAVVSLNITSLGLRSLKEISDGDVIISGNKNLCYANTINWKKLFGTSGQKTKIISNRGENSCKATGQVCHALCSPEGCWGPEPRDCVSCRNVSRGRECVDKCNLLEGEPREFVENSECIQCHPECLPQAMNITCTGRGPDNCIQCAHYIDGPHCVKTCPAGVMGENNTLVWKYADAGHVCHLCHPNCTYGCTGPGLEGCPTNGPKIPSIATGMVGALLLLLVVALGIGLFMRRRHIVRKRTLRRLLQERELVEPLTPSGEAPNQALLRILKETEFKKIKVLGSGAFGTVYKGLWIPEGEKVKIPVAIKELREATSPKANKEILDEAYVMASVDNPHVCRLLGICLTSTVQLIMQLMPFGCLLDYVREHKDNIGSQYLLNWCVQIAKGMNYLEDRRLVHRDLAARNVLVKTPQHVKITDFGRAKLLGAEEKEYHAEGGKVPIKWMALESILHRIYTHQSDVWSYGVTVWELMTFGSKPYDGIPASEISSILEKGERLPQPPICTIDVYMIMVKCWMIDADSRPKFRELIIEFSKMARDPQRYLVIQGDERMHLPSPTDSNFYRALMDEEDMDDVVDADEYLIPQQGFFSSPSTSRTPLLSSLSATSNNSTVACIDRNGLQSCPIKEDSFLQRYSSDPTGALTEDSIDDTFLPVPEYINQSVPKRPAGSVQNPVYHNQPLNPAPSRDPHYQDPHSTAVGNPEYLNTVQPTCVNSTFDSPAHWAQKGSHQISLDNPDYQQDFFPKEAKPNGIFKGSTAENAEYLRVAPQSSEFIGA
T1 sequence (P00533 with tags, fused parts or gaps DEL746-750 limits assumed): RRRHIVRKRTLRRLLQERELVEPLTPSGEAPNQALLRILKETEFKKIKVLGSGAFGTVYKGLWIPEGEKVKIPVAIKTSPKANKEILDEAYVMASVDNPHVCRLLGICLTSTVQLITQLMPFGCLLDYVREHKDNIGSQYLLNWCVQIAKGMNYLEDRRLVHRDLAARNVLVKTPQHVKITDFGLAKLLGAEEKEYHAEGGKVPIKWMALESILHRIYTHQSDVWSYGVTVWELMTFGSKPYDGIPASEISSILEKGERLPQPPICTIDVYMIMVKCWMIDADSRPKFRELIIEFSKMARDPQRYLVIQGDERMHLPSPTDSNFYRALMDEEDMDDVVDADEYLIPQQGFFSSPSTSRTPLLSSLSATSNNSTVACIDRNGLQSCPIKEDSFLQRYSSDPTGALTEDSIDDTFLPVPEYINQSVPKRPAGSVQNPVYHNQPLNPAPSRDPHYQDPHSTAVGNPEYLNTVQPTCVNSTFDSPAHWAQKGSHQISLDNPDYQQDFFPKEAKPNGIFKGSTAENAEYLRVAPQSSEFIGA

On to `C=C(C)C(=O)N[C@@H]1Cn2c(c(-c3cnc4ccccc4c3)c3c(N)ncnc32)C1=C` [Example 2, (S)—N-(4-amino-6-methylene-5-(quinolin-3-yl)-7,8-dihydro-6H -pyrimido[5,4-b]pyrrolizin-7-yl)methacrylamide], for which the concentration for half-maximal inhibition (IC50) was 78 nM in test [1]; 30 nM in test [5]; 1400 nM in test [6]; 230 nM in test [7]; 77 nM in test [8]. Moreover, the GI50 is 4200 nM in test [2], greater than 10000 nM in test [3] and 780 nM in test [4].
In the case of `C=CC(=O)N[C@@H]1CCn2c(c(-c3cnc4ccccc4c3)c3c(N)ncnc32)C(=C)C1` [Example 18, (S)—N-(4-amino-6-methylene-5-(quinolin-3-yl)-7,8,9,10-tetrahydro-6H-pyrimido[5′,4′:4,5]pyrrolo[1,2-a]azepin-8-yl)acrylamide], the IC50 came out at 4.5 nM in test [1]; 1.3 nM in test [5]; 68 nM in test [6]; 12 nM in test [7]; 4.7 nM in test [8]. The GI50 in test [2] is 160 nM; in test [3], 4000 nM; in test [4] it was 8.9 nM.
On to `C=C1c2c(-c3cnc4ccccc4c3)c3c(N)ncnc3n2C[C@H]1NC(=O)C#CC` [Example 9, (S)—N-(4-amino-6-methylene-5-(quinolin-3-yl)-7,8-dihydro-6H-pyrimido[5,4-b]pyrrolizin-7-yl)but-2-ynamide], for which the IC50 in test [1] was 2.3 nM; in test [5], 0.45 nM; in test [6] it was 52 nM; in test [7], 5.9 nM; in test [8], 2.1 nM. Further, the concentration for 50% growth inhibition (GI50) in test [2] worked out at 770 nM; in test [3] it was 4200 nM; in test [4], 7.5 nM.
On to `C=CC(=O)N[C@H]1C/C(=C\C)c2c(-c3cnc4ccccc4c3)c3c(N)ncnc3n2C1` [Example 19, (S,E)-N-(4-amino-6-ethylidene-5-(quinolin-3-yl)-6,7,8,9-tetrahydropyrimido[5,4-b]indolizin-8-yl)acrylamide], for which the IC50 came to 0.42 nM in test [1]; 0.28 nM in test [5]; 2.2 nM in test [6]; 0.27 nM in test [7]; 0.26 nM in test [8]. The concentration for 50% growth inhibition (GI50) stood at 49 nM in test [2], 990 nM in test [3] and 5.6 nM in test [4].
`C=CC(=O)N[C@H]1CC(=C)c2c(-c3cnc4ccccc4c3)c3c(N)ncnc3n2C1` [Example 15, (S)—N-(4-amino-6-methylene-5-(quinolin-3-yl)-6,7,8,9-tetrahydropyrimido[5,4-b]indolizin-8-yl)acrylamide]: the IC50 came to 1.4 nM in test [1]; 1.2 nM in test [5]; 7.9 nM in test [6]; 1.3 nM in test [7]; 1.6 nM in test [8]. Also, the 50% growth inhibitory concentration (GI50) in test [2] is 85 nM; in test [3], 2000 nM; in test [4], 22 nM.
For `C=CC(=O)N[C@@H]1C=C(C)c2c(-c3cnc4ccccc4c3)c3c(N)ncnc3n2C1` [Example 16, (R)—N-(4-amino-6-methyl-5-(quinolin-3-yl)-8,9-dihydropyrimido[5,4-b]indolizin-8-yl)acrylamide], the half-maximal inhibitory concentration (IC50) stood at 15 nM in test [1]; 3 nM in test [5]; 480 nM in test [6]; 39 nM in test [7]; 11 nM in test [8]. For the same molecule, the GI50 is 600 nM in test [2], greater than 10000 nM in test [3] and 27 nM in test [4].
For `C#CC(=O)N[C@@H]1Cn2c(c(-c3cnc4ccccc4c3)c3c(N)ncnc32)C1=C` [Example 8, (S)—N-(4-amino-6-methylene-5-(quinolin-3-yl)-7,8-dihydro-6H-pyrimido[5,4-b]pyrrolizin-7-yl)propiolamide], the IC50 was less than 0.15 nM in test [1]; less than 0.15 nM in test [5]; 1 nM in test [6]; less than 0.5 nM in test [7]; less than 0.5 nM in test [8]. For the same molecule, the 50% growth inhibitory concentration (GI50) in test [2] came out at 800 nM; in test [3], 1100 nM; in test [4] it was 66 nM.

As a reminder, the IC50 is the concentration at which inhibition is half-maximal. Lower therefore signals greater potency in that assay. For orientation: GI50 means the concentration that inhibits growth by half. A lower GI50 goes with greater sensitivity of the cells.
